Results taken from patent US20100298299A1, “NON-PEPTIDE DERIVATIVES AS BRADYKININ B1 ANTAGONISTS” (priority 2007, published 2010).
Where a name gives a salt, the structure may show the parent alone. Read-outs that look alike come from different tables or passages of the source.

Columns and labels:
[1] = target: T1, recombinant human B1 receptors (Homo sapiens, UniProt P46663); test: Functional assay: antagonist potency by cytosolic calcium measurement in CHO-B1 cells; type: cell-based
T1 construct: host or cells: CHO (CHO-B1)
T1 sequence (P46663 1-353): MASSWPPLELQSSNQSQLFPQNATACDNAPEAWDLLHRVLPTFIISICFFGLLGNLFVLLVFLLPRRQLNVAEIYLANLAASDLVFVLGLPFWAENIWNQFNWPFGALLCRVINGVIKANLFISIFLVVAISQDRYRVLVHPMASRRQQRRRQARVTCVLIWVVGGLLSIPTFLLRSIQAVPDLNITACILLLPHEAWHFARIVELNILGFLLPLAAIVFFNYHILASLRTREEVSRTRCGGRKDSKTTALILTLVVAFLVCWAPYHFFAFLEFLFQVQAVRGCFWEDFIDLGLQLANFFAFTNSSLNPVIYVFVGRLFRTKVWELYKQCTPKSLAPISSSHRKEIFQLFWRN
Description: Assessment of Antagonist Potency at B1 and B2 Receptors In Vitro by Measurement of Cytosolic Calcium Ion Concentration with a Plate Reader Fluorimeter in Cells Expressing Recombinant Human B1 or B2 Receptors
Chinese hamster ovary (CHO) cells stably expressing recombinant human B1 (CHO-B1, Euroscreen) or B2 (CHO-B2, Perkin-Elmer) receptors were cultured in Dulbecco's Modified Eagle's Medium (DMEM) containing 10% Fetal Calf Serum (FCS), 100 U/ml penicillin, 0.1 mg/ml streptomycin, 0.25 μg/ml amphotericin B, 1% Minimum Essential Medium Eagle (MEM), non essential amino acid solution, 600 μg/ml G418, 1% pyruvate (for the B2 cell line). Cells were kept at 37° C. in a humidified incubator in an atmosphere of 5% CO2/95% air and were passaged 1:4 three times a week. Cells were plated at 1.5−2.5×10^4 cell/well on standard 96-well microplates, measurements of cytosolic calcium ion concentration ([Ca^2+]i) were carried out 1-2 days after cell plating.
Measurements of [Ca^2+]i were carried out on CHO-B1 and CHO-B2 cells stably expressing human B1 and B2 receptors, respectively. Cells were grown in standard 96-well microplates and before the measurement were loaded with a fluorescent Ca^2+-sensitive dye, fluo-4/AM (2 μM): after removing the culture medium the dye was added to the cells (dissolved in assay buffer: 145 mM NaCl, 5 mM KCl, 2 mM MgCl2, 2 mM CaCl2, 10 mM HEPES, 20 mM D-glucose, 2 mM probenecid, 100 μl/well) and cells were incubated at 37° C. in a humidified incubator in an atmosphere of 5% CO2/95% air for 40-120 min. To stop dye loading cells were washed twice with assay buffer. After washing, various concentrations of the test compounds (diluted in extracellular medium from a DMSO stock solution, final DMSO concentration was <0.1%) or buffer were added to each well depending on the experimental setup. After incubation at 37° C. for 20-25 min. baseline and agonist-evoked changes of [Ca^2+]i were measured column by column with a plate reader fluorimeter (Fluoroskan Ascent, Labsystems). Excitation and detection of emission was carried out from the bottom of the plate. Filters used for Fluo-4: excitation filter—485 nm, emission filter—538 nm. The whole measurement process was performed at 37° C. and was controlled by custom software. Inhibitory potency of the test compounds was assessed by measuring the reduction in the agonist-evoked [Ca^2+]i-elevation in the presence of different concentrations of the compounds. The agonists were LysDABK for CHO-B1, and bradykinin for CHO-B2 cells. Agonists were applied at an EC80 concentration, the EC80-values were derived from daily determined dose-response curves. Fluorescence data were expressed as ΔF/F (fluorescence change normalized to baseline). All treatments on a single plate were measured in multiple wells. Data from all wells with the same treatment were averaged and the average values were used for analysis. Inhibitory potency of a compound at a single concentration point was expressed as percent inhibition of the control agonist response. Sigmoidal concentration-inhibition curves were fitted to the data (derived from at least three independent experiments) and IC50-values were determined as the concentration that produces half of the maximal inhibition caused by the compound.

[2] = target: T2, human recombinant bradykinin B1 receptor (Homo sapiens, UniProt P46663); test: Human recombinant bradykinin B1 receptor binding
T2 construct: purchased Euroscreen ES-091; host or cells: CHO cells
T2 sequence (P46663 1-353): T1 sequence (P46663 1-353)
Description: 1. Human Recombinant Bradykinin B1 Receptor Binding
Binding assays were carried out on human recombinant bradykinin) receptors (expressed in CHO cells) according to the Euroscreen Technical Data Sheet (Cat. No.: ES-091). 20 μg protein/tube was incubated with [3,4-prolyl-3,4-^3H(N)]-[Des-Arg^10] Kallidin as radioligand. Non specific binding was determined in the presence of 10 μM Lys-des-Arg^9-Bradykinin. The final incubation volume was 250 μl. Samples were incubated for 15 min. at 25° C. then were rapidly vacuum filtered through GF/B filters presoaked for at least 1 h in 0.5% PEI. Radioactivity was determined by liquid scintillation spectroscopy.

[3] = reference compounds, functional test, read-out: IC50
[4] = reference compounds, binding test, read-out: Ki

| IC50 ([1]; CHO-B1 cells, inhibition of LysDABK (EC80)-evoked [Ca2+]i elevation, read-out: B1 func.) | Ki ([2]; CHO cell membranes, [3H]-[Des-Arg10] Kallidin radioligand, read-out: B1 binding) | SMILES | IC50 [1, 3] | Ki [2, 4] |
| --- | --- | --- | --- | --- |
| < 20 nM | < 20 nM | O=C(CNC(=O)c1ccc(S(=O)(=O)Nc2ccccc2Sc2ccccc2)cc1)NCC1CCNCC1 [Example 39, 4-(2-Phenylsulfanyl-phenylsulfamoyl)-N-{[(piperidin-4-ylmethyl)-carbamoyl]-methyl}-benzamide hydrochloride] |  |  |
|  |  | CN1CCN(C(=O)C2CCN(S(=O)(=O)c3ccc(NCC(c4ccccc4)c4ccccc4)c(C(=O)N4CCOCC4)c3)CC2)CC1 [NVP-SAA164, 4-{2-[(2,2-diphenyl-ethyl)-amino]-5-{4-[4-[(4-methyl-1-piperazinyl)-carbonyl]-1-piperidinyl]-sulfonyl}-benzoyl}-morfoline, reference compound] | 33 nM | 8 nM |
|  |  | CCCN1C(=O)[C@H](NC(=O)Nc2ccc(N3CCC(N4CCCCC4)CC3)cc2)N=C(c2ccc(C)cc2)c2ccccc21 [compound 3, N-[4-(4′-bipiperidin)-1′-ylphenyl]-N′-[(3R)-2,3-dihydro-5-(4-methyl-phenyl)-2-oxo-1-propyl-1H-1,4-benzodiazepin-3-yl]-urea, reference compound] | 64.5 nM | 13.4 nM |
